Experimental data reported in ChEMBL document CHEMBL2375290, “Nonclassical antifolates, part 3: synthesis, biological evaluation and molecular modeling study of some new 2-heteroarylthio-quinazolin-4-ones” (Eur J Med Chem, 2013).

System: Staphylococcus aureus
Experiment: Antimicrobial activity against Staphylococcus aureus at 200 ug after 24 hrs by agar disc diffusion method
Format: functional
Conditions: read-out: DIZ

SMILES	zone of inhibition at 200 µg/disc [mm]
Cc1ccc2nc(Sc3cnc(N)s3)n(-c3ccccc3)c(=O)c2c1	8

System: NCI-H23
Experiment: Cytotoxicity against human NCI-H23 cells at 10 uM after 48 hrs by coulter counter analysis
Format: functional
Conditions: NCI-H23, 48 h, read-out: GI

SMILES	inhibition of growth at 10 µM [%]
Cc1ccc2nc(Sc3cnc(N)s3)n(-c3ccccc3)c(=O)c2c1	< 10

System: MOLT-4
Experiment: Cytotoxicity against human MOLT4 cells at 10 uM after 48 hrs by coulter counter analysis
Format: functional
Conditions: MOLT-4, 48 h, read-out: GI

SMILES	inhibition of growth at 10 µM [%]
Cc1ccc2nc(Sc3cnc(N)s3)n(-c3ccccc3)c(=O)c2c1	< 10

System: SN12C
Experiment: Cytotoxicity against human SN12C cells at 10 uM after 48 hrs by coulter counter analysis
Format: functional
Conditions: read-out: GI

SMILES	inhibition of growth at 10 µM [%]
Cc1ccc2nc(Sc3cnc(N)s3)n(-c3ccccc3)c(=O)c2c1	< 10

System: Escherichia coli
Experiment: Antimicrobial activity against Escherichia coli at 200 ug after 24 hrs by agar disc diffusion method
Format: functional
Conditions: read-out: DIZ

SMILES	zone of inhibition at 200 µg/disc [mm]
Cc1ccc2nc(Sc3cnc(N)s3)n(-c3ccccc3)c(=O)c2c1	8

System: MDA-MB-231
Experiment: Cytotoxicity against human MDA-MB-231 cells at 10 uM after 48 hrs by coulter counter analysis
Format: functional
Conditions: MDA-MB-231, 48 h, read-out: GI

SMILES	inhibition of growth at 10 µM [%]
Cc1ccc2nc(Sc3cnc(N)s3)n(-c3ccccc3)c(=O)c2c1	18.1

System: Hs-578T
Experiment: Cytotoxicity against human Hs578T cells at 10 uM after 48 hrs by coulter counter analysis
Format: functional
Conditions: read-out: GI

SMILES	inhibition of growth at 10 µM [%]
Cc1ccc2nc(Sc3cnc(N)s3)n(-c3ccccc3)c(=O)c2c1	< 10

System: Malme-3M
Experiment: Cytotoxicity against human MALME-3M cells at 10 uM after 48 hrs by coulter counter analysis
Format: functional
Conditions: read-out: GI

SMILES	inhibition of growth at 10 µM [%]
Cc1ccc2nc(Sc3cnc(N)s3)n(-c3ccccc3)c(=O)c2c1	< 10

System: OVCAR-4
Experiment: Cytotoxicity against human OVCAR4 cells at 10 uM after 48 hrs by coulter counter analysis
Format: functional
Conditions: OVCAR-4, 48 h, read-out: GI

SMILES	inhibition of growth at 10 µM [%]
Cc1ccc2nc(Sc3cnc(N)s3)n(-c3ccccc3)c(=O)c2c1	< 10

System: HL-60(TB)
Experiment: Cytotoxicity against human HL-60(TB) cells at 10 uM after 48 hrs by coulter counter analysis
Format: functional
Conditions: HL-60, 48 h, read-out: GI

SMILES	inhibition of growth at 10 µM [%]
Cc1ccc2nc(Sc3cnc(N)s3)n(-c3ccccc3)c(=O)c2c1	< 10

System: PC-3
Experiment: Cytotoxicity against human PC3 cells at 10 uM after 48 hrs by coulter counter analysis
Format: functional
Conditions: PC-3, 48 h, read-out: GI

SMILES	inhibition of growth at 10 µM [%]
Cc1ccc2nc(Sc3cnc(N)s3)n(-c3ccccc3)c(=O)c2c1	10.1

System: SNB-75
Experiment: Cytotoxicity against human SNB75 cells at 10 uM after 48 hrs by coulter counter analysis
Format: functional
Conditions: SNB-75, 48 h, read-out: GI

SMILES	inhibition of growth at 10 µM [%]
Cc1ccc2nc(Sc3cnc(N)s3)n(-c3ccccc3)c(=O)c2c1	< 10

System: CAKI-1
Experiment: Cytotoxicity against human Caki1 cells at 10 uM after 48 hrs by coulter counter analysis
Format: functional
Conditions: CAKI-1, 48 h, read-out: GI

SMILES	inhibition of growth at 10 µM [%]
Cc1ccc2nc(Sc3cnc(N)s3)n(-c3ccccc3)c(=O)c2c1	20.9

System: UACC-62
Experiment: Cytotoxicity against human UACC62 cells at 10 uM after 48 hrs by coulter counter analysis
Format: functional
Conditions: UACC-62, 48 h, read-out: GI

SMILES	inhibition of growth at 10 µM [%]
Cc1ccc2nc(Sc3cnc(N)s3)n(-c3ccccc3)c(=O)c2c1	< 10

System: SNB-19
Experiment: Cytotoxicity against human SNB19 cells at 10 uM after 48 hrs by coulter counter analysis
Format: functional
Conditions: SNB-19, 48 h, read-out: GI

SMILES	inhibition of growth at 10 µM [%]
Cc1ccc2nc(Sc3cnc(N)s3)n(-c3ccccc3)c(=O)c2c1	< 10

System: A498
Experiment: Cytotoxicity against human A498 cells at 10 uM after 48 hrs by coulter counter analysis
Format: functional
Conditions: A498, 48 h, read-out: GI

SMILES	inhibition of growth at 10 µM [%]
Cc1ccc2nc(Sc3cnc(N)s3)n(-c3ccccc3)c(=O)c2c1	< 10

System: UO-31
Experiment: Cytotoxicity against human UO31 cells at 10 uM after 48 hrs by coulter counter analysis
Format: functional
Conditions: UO-31, 48 h, read-out: GI

SMILES	inhibition of growth at 10 µM [%]
Cc1ccc2nc(Sc3cnc(N)s3)n(-c3ccccc3)c(=O)c2c1	20.7

System: Bacillus subtilis
Experiment: Antimicrobial activity against Bacillus subtilis at 200 ug after 24 hrs by agar disc diffusion method
Format: functional
Conditions: read-out: DIZ

SMILES	zone of inhibition at 200 µg/disc [mm]
Cc1ccc2nc(Sc3cnc(N)s3)n(-c3ccccc3)c(=O)c2c1	8

System: NCI-H522
Experiment: Cytotoxicity against human NCI-H522 cells at 10 uM after 48 hrs by coulter counter analysis
Format: functional
Conditions: NCI-H522, 48 h, read-out: GI

SMILES	inhibition of growth at 10 µM [%]
Cc1ccc2nc(Sc3cnc(N)s3)n(-c3ccccc3)c(=O)c2c1	13.8

System: Micrococcus luteus
Experiment: Antimicrobial activity against Micrococcus luteus at 200 ug after 24 hrs by agar disc diffusion method
Format: functional
Conditions: read-out: DIZ

SMILES	zone of inhibition at 200 µg/disc [mm]
Cc1ccc2nc(Sc3cnc(N)s3)n(-c3ccccc3)c(=O)c2c1	8

System: SK-MEL-5
Experiment: Cytotoxicity against human SK-MEL-5 cells at 10 uM after 48 hrs by coulter counter analysis
Format: functional
Conditions: SK-MEL-5, 48 h, read-out: GI

SMILES	inhibition of growth at 10 µM [%]
Cc1ccc2nc(Sc3cnc(N)s3)n(-c3ccccc3)c(=O)c2c1	< 10

System: SF-295
Experiment: Cytotoxicity against human SF295 cells at 10 uM after 48 hrs by coulter counter analysis
Format: functional
Conditions: SF-295, 48 h, read-out: GI

SMILES	inhibition of growth at 10 µM [%]
Cc1ccc2nc(Sc3cnc(N)s3)n(-c3ccccc3)c(=O)c2c1	< 10

System: SR
Experiment: Cytotoxicity against human SR cells at 10 uM after 48 hrs by coulter counter analysis
Format: functional
Conditions: read-out: GI

SMILES	inhibition of growth at 10 µM [%]
Cc1ccc2nc(Sc3cnc(N)s3)n(-c3ccccc3)c(=O)c2c1	37.8

System: T47D
Experiment: Cytotoxicity against human T47D cells at 10 uM after 48 hrs by coulter counter analysis
Format: functional
Conditions: read-out: GI

SMILES	inhibition of growth at 10 µM [%]
Cc1ccc2nc(Sc3cnc(N)s3)n(-c3ccccc3)c(=O)c2c1	< 10

System: not listed separately
Experiment: Cytotoxicity against human NCI-ADR-RES cells at 10 uM after 48 hrs by coulter counter analysis
Format: functional
Conditions: read-out: GI

SMILES	inhibition of growth at 10 µM [%]
Cc1ccc2nc(Sc3cnc(N)s3)n(-c3ccccc3)c(=O)c2c1	< 10

System: A549
Experiment: Cytotoxicity against human A549/ATCC cells at 10 uM after 48 hrs by coulter counter analysis
Format: functional
Conditions: A549, 48 h, read-out: GI

SMILES	inhibition of growth at 10 µM [%]
Cc1ccc2nc(Sc3cnc(N)s3)n(-c3ccccc3)c(=O)c2c1	< 10

System: CCRF-CEM
Experiment: Cytotoxicity against human CCRF-CEM cells at 10 uM after 48 hrs by coulter counter analysis
Format: functional
Conditions: read-out: GI

SMILES	inhibition of growth at 10 µM [%]
Cc1ccc2nc(Sc3cnc(N)s3)n(-c3ccccc3)c(=O)c2c1	< 10

Molecular target: T1, Dihydrofolate reductase (Bos taurus, UniProt P00376)
T1 sequence (P00376 whole entry): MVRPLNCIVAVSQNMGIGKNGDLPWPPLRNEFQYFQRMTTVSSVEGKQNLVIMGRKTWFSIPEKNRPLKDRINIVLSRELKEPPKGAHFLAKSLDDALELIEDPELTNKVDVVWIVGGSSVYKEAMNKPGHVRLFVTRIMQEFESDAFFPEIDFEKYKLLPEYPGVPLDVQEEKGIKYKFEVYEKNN
Experiment: Inhibition of bovine DHFR after 2 mins by spectrophotometry
Conditions: not given

SMILES	IC50 [nM]
Cc1ccc2nc(Sc3cnc(N)s3)n(-c3ccccc3)c(=O)c2c1	800

System: IGROV-1
Experiment: Cytotoxicity against human IGROV1 cells at 10 uM after 48 hrs by coulter counter analysis
Format: functional
Conditions: IGROV-1, 48 h, read-out: GI

SMILES	inhibition of growth at 10 µM [%]
Cc1ccc2nc(Sc3cnc(N)s3)n(-c3ccccc3)c(=O)c2c1	14.3

System: MCF7
Experiment: Cytotoxicity against human MCF7 cells at 10 uM after 48 hrs by coulter counter analysis
Format: functional
Conditions: MCF7, 48 h, read-out: GI

SMILES	inhibition of growth at 10 µM [%]
Cc1ccc2nc(Sc3cnc(N)s3)n(-c3ccccc3)c(=O)c2c1	< 10

System: Pseudomonas aeruginosa
Experiment: Antimicrobial activity against Pseudomonas aeruginosa at 200 ug after 24 hrs by agar disc diffusion method
Format: functional
Conditions: read-out: DIZ

SMILES	zone of inhibition at 200 µg/disc [mm]
Cc1ccc2nc(Sc3cnc(N)s3)n(-c3ccccc3)c(=O)c2c1	8

System: RPMI-8226
Experiment: Cytotoxicity against human RPMI8226 cells at 10 uM after 48 hrs by coulter counter analysis
Format: functional
Conditions: RPMI-8226, 48 h, read-out: GI

SMILES	inhibition of growth at 10 µM [%]
Cc1ccc2nc(Sc3cnc(N)s3)n(-c3ccccc3)c(=O)c2c1	< 10

System: LOX IMVI
Experiment: Cytotoxicity against human LOXIMVI cells at 10 uM after 48 hrs by coulter counter analysis
Format: functional
Conditions: read-out: GI

SMILES	inhibition of growth at 10 µM [%]
Cc1ccc2nc(Sc3cnc(N)s3)n(-c3ccccc3)c(=O)c2c1	< 10

System: MDA-MB-435
Experiment: Cytotoxicity against human MDA-MB-435 cells at 10 uM after 48 hrs by coulter counter analysis
Format: functional
Conditions: MDA-MB-435, 48 h, read-out: GI

SMILES	inhibition of growth at 10 µM [%]
Cc1ccc2nc(Sc3cnc(N)s3)n(-c3ccccc3)c(=O)c2c1	< 10

System: NCI-H226
Experiment: Cytotoxicity against human NCI-H226 cells at 10 uM after 48 hrs by coulter counter analysis
Format: functional
Conditions: NCI-H226, 48 h, read-out: GI

SMILES	inhibition of growth at 10 µM [%]
Cc1ccc2nc(Sc3cnc(N)s3)n(-c3ccccc3)c(=O)c2c1	12.4

System: RXF 393
Experiment: Cytotoxicity against human RXF393 cells at 10 uM after 48 hrs by coulter counter analysis
Format: functional
Conditions: RXF 393, 48 h, read-out: GI

SMILES	inhibition of growth at 10 µM [%]
Cc1ccc2nc(Sc3cnc(N)s3)n(-c3ccccc3)c(=O)c2c1	< 10

System: not listed separately
Experiment: Cytotoxicity against human EKVX cells at 10 uM after 48 hrs by coulter counter analysis
Format: functional
Conditions: read-out: GI

SMILES	inhibition of growth at 10 µM [%]
Cc1ccc2nc(Sc3cnc(N)s3)n(-c3ccccc3)c(=O)c2c1	< 10
